Source: patent publication US20250248924A1, “COMPOUNDS FROM FRUIT SEED EXTRACTS FOR MELANIN REDUCTION IN SKIN” (priority 2024, published 2025)

Experiments:
[1] = Solubility in solvents; format: physicochemical
Text: A 2.5 gram sample of a red raspberry seed extract in a dry powder form was split into two fractions, one combined 1.25 grams of the dry extract with 11.25 grams of water to create a 10% aqueous solution of the extract. […] Combining 1.25 grams of the dry extract with about 11.25 grams of isopropyl alcohol (91%) produced an about 10% alcohol solution.
Using pure water was explored in extraction experiments with cranberry seed powder. The advantages of using water are essentially zero cost and toxicity. It is also a very polar solvent and will not extract any residual oils (which are very non-polar compounds) from the seed powders. The limitations of using water are that it gives quite low yields in extractions at room temperature and only dissolved the most polar compounds from the seed powders, leaving most of the medium polarity materials behind. It is possible that this could be improved by heating. […] Simply filtering the mixture through inexpensive filter paper by gravity or mild vacuum will be unsuccessful. One solution that worked was mixing in filtering media (diatomaceous earth) and then vacuum filtering through a bed of the same filtering medium. To completely clarify the mixture, an additional treatment with activated carbon and further vacuum filtering through a bed of diatomaceous earth was effective. Given the limitations of water extraction, it was not used extensively. […]

[2] = Solubility in the enzyme assay; format: physicochemical; conditions: aqueous pH 7.00 phosphate buffer with DMSO stock

solubility in water ([1]; high pH): very water soluble
solubility in water ([1]; neutral pH): only slightly soluble
solubility in the enzyme assay [2]: highly insoluble
SMILES: O=c1oc2c(O)c(O)cc3c(=O)oc4c(O)c(O)cc1c4c23 [ellagic acid]
